We go through four compounds from US20250162989A1, “USP30 INHIBITORS AND USES THEREOF” (Vincere Biosciences, Inc., priority 2021, published 2025).

For data set [1], the target named is USP30 (Homo sapiens (Human), UniProt Q70CQ3). The data set is described as follows: Dundee MALDI-TOF mass spectrometry assay (K48-linked diubiquitin cleavage). Format: biochemical. As to conditions: USP30 25 ng/μl, K48-linked diubiquitin 5.6 μM, read-out: IC50.
The target in data set [2] is recombinant USP30 (amino acids 57-517 of the human sequence) (Homo sapiens (Human), UniProt Q70CQ3). Kind of data set: In vitro USP30 biochemical assay (Ubiquitin-Rhodamine substrate). The note with it: fluorescence. The method, then:
In vitro biochemical assay to establish the potency of compounds for USP30 inhibition: a 384-well plate assay using a fluorophore tagged substrate of USP30 was used for in vitro screening of compounds. Each compound was tested at
10 different concentrations (0.5 to 10,000 nM) in duplicate wells. […] Data were analyzed using Graph Pad Prism software with a four-parameter (floating slope) fit to log concentration data to determine IC50s.

Data set [3] concerns Tom20 loss in differentiated RenCell VM. The data set is described as follows: In-cell Tom20 loss assay. Format: cell-based. The note with it: 20 h after compound addition. The method, then:
To evaluate Tom20 loss following treatment with compounds and/or antimycin/oligomycin, a 96-well plate assay was performed on differentiated RenCell VM. These were seeded into laminin-coated 96-well plates at 5000 cells/well in normal growth medium (ReNcell NSC maintenance medium+20 ng/ml FDF-2 and 20 ng/ml EGF). After 3 days, growth medium was replaced with differentiation medium (ReNCell NSC medium+0.1 mM dibutyryl cAMP and 2 ng/ml GDNF). On days 1 and 4 following addition of differentiation medium, the media was removed and replaced with fresh differentiation medium. […] After again washing with PBS, cells were imaged using GE INCell 6000 at 40× and quantified using HCA-based quantification algorithm of fluorescence density×area normalized to the number of nuclei.

The nature of data set [4]: Kinetic solubility. Format: physicochemical. The note with it: 100 mM PBS, 1 hour at room temperature. The method, then: To 396 μL of a 100 mM phosphate buffered saline (PBS) was added 4 μL of a 10 mM stock solution of the compound. The mixture was shaken at 1000 rpm for 1 hour at room temperature. […] Compound concentration was calculated by comparison to a standard calibration curve. The assay was done in duplicate. The results are reported in μMol.

A short description of data set [5]: Metabolic stability and intrinsic clearance in liver microsomes (human). Format: in vitro ADME. The note with it: 37° C. The method, then:
(§1) Test compounds were incubated with microsomes supplemented with co-factors at 37° C. Typical conditions were: compound concentration of 1 μM and 5 sampling time-points (0, 15, 30, 45 and 60 minutes), in duplicates. At each time-point, the reactions were terminated by the addition of organic solvent. The samples were centrifuged and the parent compound concentration was evaluated by LC-MS/MS measurements.

The nature of data set [6]: Metabolic stability and intrinsic clearance in liver microsomes (rat). Format: in vitro ADME. The note with it: 37° C. The method, then:
as §1
Background: Microsomes from liver hold many membrane-bound enzymes, among them those of drug oxidation.

Data set [7] in a line: Metabolic stability and intrinsic clearance in liver microsomes (mouse). Format: in vitro ADME. The note with it: 37° C. The procedure: as §1
The subject of data set [8] is Caco-2 cells. Kind of data set: Caco-2 permeability screening assay. Format: in vitro ADME. The note with it: Caco-2, 10 μM, […] at 37° C. Background: Caco-2 monolayers are a common model of the intestinal barrier.
Method: Caco-2 cells were used after a 21-day cell culture in 24-well Transwell plates. Test and reference compounds (Metoprolol, Enalapril and Erythromycin) were prepared in DMSO and added to either the apical or basolateral chambers of the transwell plate assembly at a concentration of 10 μM. Lucifer Yellow was added to the donor buffer in all wells to assess integrity of the cell layers by monitoring Lucifer Yellow permeation. As Lucifer Yellow (LY) cannot freely permeate lipophilic barriers, a high degree of LY transport indicates poor integrity of the cell layer. After 1.5 hrs incubation at 37° C., aliquots were taken from both apical (A) and basal (B) chambers and added to stop solution in a 96 well plate. Concentrations of compound in the samples were measured by LC-MS/MS. The Efflux ratios, as an indication of active efflux from the apical cell surface, were calculated using the ratio of Papp B>A/Papp A>B.
Where [9] appears, read: […] recombinant USP30, 25 nM Ubiquitin-Rhodamine.

Molecules are shown by their SMILES. pIC50: −log10 of the molar value.

Usually pIC50 stands for the negative decadic logarithm of the IC50, by convention in mol/L. One may read the IC50 as the concentration that inhibits the measured activity by half. As a reminder, the half-life is the time needed for the level to fall by half in the phase considered. Lower therefore signals fast loss.

recombinant USP30 (amino acids 57-517 of the human sequence), sequence (Q70CQ3 57-517): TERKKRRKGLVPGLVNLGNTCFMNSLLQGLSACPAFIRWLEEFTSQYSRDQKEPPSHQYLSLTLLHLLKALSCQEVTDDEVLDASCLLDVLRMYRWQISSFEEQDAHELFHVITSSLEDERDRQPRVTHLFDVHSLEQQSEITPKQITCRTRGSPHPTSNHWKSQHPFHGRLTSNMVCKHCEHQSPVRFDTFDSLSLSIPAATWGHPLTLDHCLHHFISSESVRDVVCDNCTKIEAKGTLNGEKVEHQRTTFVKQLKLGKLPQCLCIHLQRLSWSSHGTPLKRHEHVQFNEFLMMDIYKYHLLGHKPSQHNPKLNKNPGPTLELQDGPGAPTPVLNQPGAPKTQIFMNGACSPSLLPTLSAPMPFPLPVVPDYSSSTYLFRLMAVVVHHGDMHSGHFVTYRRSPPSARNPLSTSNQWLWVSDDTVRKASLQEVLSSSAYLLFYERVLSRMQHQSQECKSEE
USP30, sequence (Q70CQ3 whole entry, the tested form may be a part): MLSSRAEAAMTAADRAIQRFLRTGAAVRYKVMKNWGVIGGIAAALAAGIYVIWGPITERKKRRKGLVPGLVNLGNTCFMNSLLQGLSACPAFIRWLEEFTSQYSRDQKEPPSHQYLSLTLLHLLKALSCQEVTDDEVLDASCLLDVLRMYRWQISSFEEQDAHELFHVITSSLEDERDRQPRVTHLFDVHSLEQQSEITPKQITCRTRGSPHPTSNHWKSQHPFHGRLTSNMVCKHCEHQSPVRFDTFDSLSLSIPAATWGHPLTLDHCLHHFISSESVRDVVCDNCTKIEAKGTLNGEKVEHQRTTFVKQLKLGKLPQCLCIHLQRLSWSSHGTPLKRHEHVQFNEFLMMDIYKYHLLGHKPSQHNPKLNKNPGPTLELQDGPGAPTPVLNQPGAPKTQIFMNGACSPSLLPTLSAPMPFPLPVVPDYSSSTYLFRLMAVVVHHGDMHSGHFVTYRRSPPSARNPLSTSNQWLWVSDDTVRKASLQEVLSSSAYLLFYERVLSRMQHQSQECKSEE

For the compound `CC(C)(C)NS(=O)(=O)c1ccc(NC(=O)[C@H](CC2CCOCC2)NC(=O)c2ccc(F)cc2)cc1` [Compound I-1], the negative logarithm of the IC50 (pIC50) in data set [1] was above 7.30; in data set [3], above 6.30. The 50% inhibitory concentration (IC50) in data set [2] (setting [9]) is below 0.05 µM.

Regarding `COc1cc(NC(=O)[C@H](CC2CCOCC2)NC(=O)c2ccc(F)cc2)ccc1S(=O)(=O)NC1COC1` [Compound I-3], the half-inhibitory concentration (IC50) in data set [2] (1.5 nM recombinant USP30, 25 nM Ubiquitin-Rhodamine) lay in the range of 0.05 to 1 µM. Besides, the “Kinetic Solubility (μMol)” value in data set [4] is “A (solubility of ≥75.0 μMol)”. For the same compound, the half-life at 1 μM in data set [5] was 2 to 6 h; in data set [6] it was at least 6 h; in data set [7], 0.25 to 2 h.

As to `CC(C)(C)NS(=O)(=O)c1ccc(NC(=O)[C@H](CC2CCCCC2)NC(=O)c2ccc(F)cc2)cc1` [Compound I-294], the IC50 in data set [2] (setting [9]) is below 0.05 µM. Besides, the “Kinetic Solubility (μMol)” value in data set [4] is “C (solubility ≥1.0 μMol and <50.0 μMol)”. Moreover, the “Half-life in human microsomes” value in data set [5] (1 μM) is given as “D (half-life of <15 minutes)”. In data set [6] (1 μM), the “Half-life in rat microsomes” value is listed as “D (half-life of <15 minutes)”. The “Half-life in mouse microsomes” value in data set [7] (1 μM) is given as “D (half-life of <15 minutes)”. Moreover, the “Efflux Ratio (Papp B>A/Papp A>B)” value in data set [8] is “B (efflux ratio >2 and ≤6)”. For the same compound, the “Papp(A-B) (10 − 6, cm/sec)” value in data set [8] (apical to basolateral) is recorded as 1.8 10 − 6, cm/sec.

`CC(C)C[C@H](NC(=O)c1ccc(F)cc1)C(=O)Nc1ccc(S(=O)(=O)NC(C)(C)C)cc1` [Compound I-11]: in data set [2] (setting [9]), the IC50 is below 0.05 µM. This compound showed a pIC50 in data set [3] above 6.30.
